How the values were obtained:
[1] = test system: Mice bearing FAP-positive and FAP-negative xenografts; assay: PET/CT imaging: remaining PET activity in the mouse body; format: in vivo
Protocol: The mice were euthanized by CO2 at 4 hours p.i., and static PET scans were acquired for 30 min.
PET/CT images were acquired using β-CUBE PET scanner system (Molecubes, Gent, Belgium), with a spatial resolution of 0.85 mm and an axial field-of-view of 13 cm. Dynamic PET scans were acquired for 60 min. All PET scans were decay corrected and reconstructed into a 192×192×384 matrix by an ordered subsets maximization expectation (OSEM) algorithm using 30 iterations, a voxel size of 400×400×400 μm a 15 min per frame. CT data was used to apply attenuation correction on the PET data. The CT was imaged supine, head first, using the NanoSPECT/CTTM scanner (Bioscan Inc.). Topograms and helical CT scans of the whole mouse were first acquired using the following parameters: X-ray tube current: 177 μA, X-ray tube voltage 45 kVp, 90 seconds and 180 frames per rotation, pitch 1. CT images were reconstructed using CTReco (version r1.146), with a standard filtered back projection algorithm (exact cone beam) and post-filtered (RamLak, 100% frequency cut-off), resulting in a pixel size of 0.2 mm. Co-registered PET/CT images were visualized using maximum intensity projection (MIP) with VivoQuant software (version 4.0).

[2] = test system: HT-1080.hFAP tumor-bearing mice; assay: Biodistribution studies in xenografted mice; format: in vivo; conditions: for Biodistribution: HT-1080.wt: FAP-negative tumor; for Biodistribution: HT-1080.hFAP: FAP-positive tumor
Protocol: The tumors were allowed to grow to an average volume of 100-200 mm^3.
Biodistribution Studies: The xenografted mice were randomized (n=5 per group) and injected intravenously via the tail vein with the ^61Cu-labeled radioligands (100 μL, […], 0.8-1MBq). Mice were euthanized 1 h and 4 h p.i. by CO2 asphyxiation. Organs of interest and blood were collected, rinsed of excess blood, blotted dry, weighed, and counted in a […]. The samples were counted against a suitably diluted aliquot of the injected solution as the standard and the results are expressed as the percentage of the injected activity per gram of tissue (% I.A./g) ±SD.

[3] = test system: HT-1080.hFAP (FAP-positive) cells; assay: In vitro cellular uptake (cell surface-bound and internalized fractions); format: cell-based, human; conditions: 37° C., specific uptake (HT-1080.wt subtracted)
Protocol: The cellular uptake was studied in vitro using intact cells seeded in 6-well plates overnight. […] At each investigated time point, the medium containing the unbound (free) radiotracer was removed, followed by two washing steps with ice-cold phosphate-buffered saline. The cells were then treated 2×5 min with ice-cold glycine solution (0.05 M, pH 2.8) to detach the cell surface-bound radiotracer (acid released). Afterwards, the cells containing the internalized radiotracer were detached with 1 M NaOH at 37° C. and collected for measurement. The amount of specific cell surface-bound and internalized radiotracer is expressed as percentage of the total applied activity, after subtracting the non-specific values.
The cells were then preconditioned in 360 μL of assay medium (MEM medium without supplements) at 37° C. for 60 min. 40 μL of a 2 nM solution of ^61Cu-labeled radioligand was added and the cells were incubated at 37° C. The cellular uptake was interrupted at different time points (15 min, 1 hour and 4 hours), by washing twice with ice-cold PBS. Cell surface-bound radioligand was obtained by washing cells twice with ice-cold glycine buffer (pH 2.8), followed by a collection of the internalized fraction with 1 M NaOH. The activity in each fraction was measured in a […] (Cobra II).

Retention in the body (remaining PET activity 4 h p.i.), in words [1]: lowest value | Biodistribution: Heart ([2]; 1 hour p.i., i.v.): 0.6 ± 0.0 % I.A./g | Biodistribution: Intestine ([2]; 1 hour p.i., i.v.): 0.5 ± 0.2 % I.A./g | Biodistribution: Liver ([2]; 1 hour p.i., i.v.): 0.6 ± 0.1 % I.A./g | Biodistribution: Lung ([2]; 1 hour p.i., i.v.): 0.9 ± 0.1 % I.A./g | Biodistribution: Muscle ([2]; 1 hour p.i., i.v.): 0.8 ± 0.2 % I.A./g | Biodistribution: Spleen ([2]; 1 hour p.i., i.v.): 0.4 ± 0.0 % I.A./g | Biodistribution: Stomach ([2]; 1 hour p.i., i.v.): 0.5 ± 0.0 % I.A./g | Biodistribution: Adrenal ([2]; 4 hours p.i., i.v.): 0.5 ± 0.1 % I.A./g | Biodistribution: Blood ([2]; 4 hours p.i., i.v.): 0.4 ± 0.1 % I.A./g | Biodistribution: Heart ([2]; 4 hours p.i., i.v.): 0.2 ± 0.0 % I.A./g | Biodistribution: Intestine ([2]; 4 hours p.i., i.v.): 0.3 ± 0.1 % I.A./g | Biodistribution: Liver ([2]; 4 hours p.i., i.v.): 0.4 ± 0.0 % I.A./g | Biodistribution: Lung ([2]; 4 hours p.i., i.v.): 0.3 ± 0.0 % I.A./g | Biodistribution: Muscle ([2]; 4 hours p.i., i.v.): 0.4 ± 0.1 % I.A./g | Biodistribution: Pancreas ([2]; 4 hours p.i., i.v.): 0.4 ± 0.1 % I.A./g | Biodistribution: Spleen ([2]; 4 hours p.i., i.v.): 0.2 ± 0.0 % I.A./g | Biodistribution: Stomach ([2]; 4 hours p.i., i.v.): 0.2 ± 0.0 % I.A./g | Biodistribution: HT-1080.wt ([2]; 1 hour p.i., i.v.): 1.7 ± 0.2 % I.A./g | Biodistribution: HT-1080.wt ([2]; 4 hours p.i., i.v.): 0.6 ± 0.0 % I.A./g | Biodistribution: HT-1080.hFAP ([2]; 1 hour p.i., i.v.): 7.4 ± 1.6 % I.A./g | Biodistribution: HT-1080.hFAP ([2]; 4 hours p.i., i.v.): 3.0 ± 0.8 % I.A./g | Accumulation in FAP-positive (HT-1080.hFAP) tumor and murine-FAP-positive tissues, such as the bone marrow (bones) ([2]; xenografted mice, 1 h and 4 h p.i.): high accumulation
SMILES: CN(C(=O)CCC(=O)N1CCN(C(=O)CCC(C(=O)O)N2CCN(CC(=O)[O-])CCN(CC(=O)[O-])CC2)CC1)c1ccc2nccc(C(=O)NCC(=O)N3CC(F)(F)CC3C#N)c2c1.[61Cu+2] (centres unmarked) [[^61Cu]Cu-NODAGA-4]
Cell surface fraction ([3]; 15 min): 1.0 ± 0.7 % of the applied activity | Internalized fraction ([3]; 30 min): 22.2 ± 7.4 % of the applied activity | Cell surface fraction ([3]; 60 min): 1.4 ± 0.4 % of the applied activity | Internalized fraction ([3]; 60 min): 22.2 ± 5.1 % of the applied activity | Cell surface fraction ([3]; 240 min): 0.9 ± 0.6 % of the applied activity | Internalized fraction ([3]; 240 min): 17.4 ± 4.4 % of the applied activity

Source: patent publication US20260061084A1, “FIBROBLAST ACTIVATION PROTEIN (FAP) INHIBITORS, FAP CONJUGATES, AND DIAGNOSTIC AND THERAPEUTIC USES THEREOF” (Nuclidium AG, priority 2022, published 2026)
